Experimental data taken from the CheMixHub viscosity set.

Test: xn = mol fraction of the nth substance listed

CCOC(C)=O + CCCCCO
viscosity [mPa·s], 101.33 kPa
Settings | x1 = 0.1 | x1 = 0.2 | x1 = 0.3 | x1 = 0.4001 | x1 = 0.5001 | x1 = 0.6036 | x1 = 0.7001 | x1 = 0.8001 | x1 = 0.9
298.15 K | 2.349 | 1.693 | 1.282 | 1.011 | 0.829 | – | 0.6 | 0.521 | 0.472
303.15 K | 2.079 | 1.53 | 1.161 | 0.924 | 0.766 | 0.644 | 0.561 | 0.486 | 0.446
308.15 K | 1.843 | 1.367 | 1.053 | 0.848 | 0.681 | 0.599 | 0.525 | 0.459 | 0.392

CCOc1ccccc1 + CCCCCO
viscosity [mPa·s], 101.3 kPa
Settings | x1 = 0.0998 | x1 = 0.1989 | x1 = 0.3012 | x1 = 0.3999 | x1 = 0.5004 | x1 = 0.6001 | x1 = 0.7013 | x1 = 0.7997 | x1 = 0.9021
293.15 K | 3.281 | 2.682 | 2.196 | 1.866 | 1.631 | 1.494 | 1.42 | 1.379 | 1.371
298.15 K | 2.882 | 2.372 | 1.953 | 1.646 | 1.423 | 1.299 | 1.245 | 1.232 | 1.228
308.15 K | 2.152 | 1.785 | 1.486 | 1.256 | 1.121 | 1.032 | 0.9978 | 0.9914 | 0.9892
318.15 K | 1.691 | 1.381 | 1.155 | 1.01 | 0.9175 | 0.8405 | 0.8318 | 0.8317 | 0.8269

COC(=O)CC(C)=O + CCCCCO
viscosity [mPa·s], 101.33 kPa
Settings | x1 = 0.1031 | x1 = 0.2056 | x1 = 0.3072 | x1 = 0.4083 | x1 = 0.5091 | x1 = 0.6099 | x1 = 0.7075 | x1 = 0.8063 | x1 = 0.9019
298.15 K | 2.467 | 2.053 | 1.796 | 1.637 | 1.52 | 1.439 | 1.408 | 1.408 | 1.449
303.15 K | 2.156 | 1.809 | 1.588 | 1.453 | 1.356 | 1.294 | 1.268 | 1.275 | 1.313
308.15 K | 1.903 | 1.606 | 1.419 | 1.3 | 1.223 | 1.175 | 1.156 | 1.164 | 1.201

CCOC(C)=O + CCCCO
298.15 K
Settings | viscosity [mPa·s]
101 kPa, x2 = 0.12 | 0.48
101 kPa, x2 = 0.23 | 0.51
101 kPa, x2 = 0.34 | 0.578
101 kPa, x2 = 0.44 | 0.648
101 kPa, x2 = 0.54 | 0.79
101 kPa, x2 = 0.64 | 0.987
101 kPa, x2 = 0.73 | 1.165
101 kPa, x2 = 0.83 | 1.425
101 kPa, x2 = 0.91 | 1.815
101.33 kPa, x2 = 0.1338 | 0.468
101.33 kPa, x2 = 0.2522 | 0.517
101.33 kPa, x2 = 0.3724 | 0.599
101.33 kPa, x2 = 0.4809 | 0.691
101.33 kPa, x2 = 0.5952 | 0.838
101.33 kPa, x2 = 0.7033 | 1.041
101.33 kPa, x2 = 0.801 | 1.331
101.33 kPa, x2 = 0.8918 | 1.741

COC(=O)CC(C)=O + CCCCO
viscosity [mPa·s], 101.33 kPa
Settings | x1 = 0.1022 | x1 = 0.2039 | x1 = 0.306 | x1 = 0.4081 | x1 = 0.511 | x1 = 0.6074 | x1 = 0.7044 | x1 = 0.8051 | x1 = 0.9038
298.15 K | 1.886 | 1.628 | 1.465 | 1.378 | 1.328 | 1.311 | 1.321 | 1.368 | 1.436
303.15 K | 1.669 | 1.447 | 1.308 | 1.235 | 1.197 | 1.183 | 1.197 | 1.211 | 1.302
308.15 K | 1.487 | 1.301 | 1.195 | 1.118 | 1.09 | 1.08 | 1.093 | 1.131 | 1.19

OCC(O)CO + CCCCO
viscosity [mPa·s], 101.33 kPa
Settings | x1 = 0.1003 | x1 = 0.1997 | x1 = 0.3003 | x1 = 0.4007 | x1 = 0.4996 | x1 = 0.5995 | x1 = 0.6994 | x1 = 0.8004 | x1 = 0.8999
298.15 K | 4.05 | 6.403 | 10.09 | 18.38 | 37.92 | 83.21 | 180.7 | 338.3 | 541.7
308.15 K | 3.014 | 4.518 | 6.896 | 11.9 | 21.63 | 44.15 | 82.38 | 144.5 | 231.5
318.15 K | 2.324 | 3.356 | 4.9 | 8.136 | 13.77 | 24.56 | 41.13 | 68.13 | 105.3

COC(=O)CC(C)=O + CCCCOC(C)=O
viscosity [mPa·s], 101.33 kPa
Settings | x1 = 0.1019 | x1 = 0.2013 | x1 = 0.3015 | x1 = 0.4035 | x1 = 0.5006 | x1 = 0.6004 | x1 = 0.7005 | x1 = 0.8087 | x1 = 0.8989
298.15 K | 0.719 | 0.768 | 0.826 | 0.895 | 0.969 | 1.055 | 1.163 | 1.289 | 1.407
303.15 K | 0.672 | 0.716 | 0.768 | 0.83 | 0.896 | 0.973 | 1.068 | 1.181 | 1.284
308.15 K | 0.629 | 0.669 | 0.717 | 0.774 | 0.832 | 0.901 | 0.987 | 1.085 | 1.179

COc1ccc(C=O)cc1 + CCCCOCCO
viscosity [mPa·s], 101 kPa
Settings | x1 = 0.1088 | x1 = 0.2154 | x1 = 0.3201 | x1 = 0.4227 | x1 = 0.5234 | x1 = 0.6223 | x1 = 0.7193 | x1 = 0.8146 | x1 = 0.9081
303.15 K | 2.197 | 2.089 | 2.055 | 2.09 | 2.191 | 2.354 | 2.575 | 2.852 | 3.18
308.15 K | 2.107 | 2.006 | 1.963 | 1.973 | 2.035 | 2.145 | 2.3 | 2.499 | 2.738
313.15 K | 1.984 | 1.912 | 1.881 | 1.888 | 1.932 | 2.01 | 2.121 | 2.262 | 2.432
318.15 K | 1.836 | 1.786 | 1.766 | 1.773 | 1.806 | 1.865 | 1.947 | 2.051 | 2.175
